Values joined by “and” are separate entries in the source; they are usually repeats but may differ in a detail not shown here. Equal entries are not always repeated.
C1CCC2=[NH+]CCCN2CC1.c1nc[n-]n1
Settings	viscosity [mPa·s]
303.15 K, 100 kPa	1356

C=CC(=O)OC
viscosity
Settings	293.15 K	298.15 K	303.15 K	308.15 K	313.15 K	318.15 K
100 kPa	0.5038 mPa·s	0.4602 mPa·s	0.435 mPa·s and 0.4197 mPa·s	0.415 mPa·s and 0.3856 mPa·s	0.396 mPa·s and 0.355 mPa·s	0.3276 mPa·s
101 kPa	0.5038 mPa·s and 0.492 mPa·s and 0.502 mPa·s	–	–	–	–	0.3276 mPa·s and 0.375 mPa·s and 0.334 mPa·s

C=CC(=O)OCCCC
viscosity
Settings	293.15 K	298.15 K	303.15 K	308.15 K	313.15 K	318.15 K
100 kPa	0.8996 mPa·s	0.8385 mPa·s	0.782 mPa·s	0.7306 mPa·s	0.6833 mPa·s	0.6387 mPa·s
101 kPa	0.8996 mPa·s and 0.868 mPa·s	–	0.782 mPa·s and 0.751 mPa·s and 0.781 mPa·s	–	0.6833 mPa·s and 0.658 mPa·s and 0.684 mPa·s	0.6387 mPa·s and 0.618 mPa·s
101.33 kPa	0.8763 mPa·s	–	0.7568 mPa·s	–	0.6609 mPa·s	–

CC(=O)OC(C)(C)C
101 kPa
Settings	viscosity [mPa·s]
298.15 K	0.683
308.15 K	0.596

CC(C)(C)c1ccccc1
viscosity [mPa·s]
Settings	293.15 K	298.15 K	303.15 K	308.15 K	313.15 K	318.15 K	323.15 K
100 kPa	–	1.118	–	0.97	–	0.853	–
102 kPa	1.13	–	0.982	–	0.854	–	0.751

CC(C)CO
Settings	viscosity
293.15 K, 101 kPa	4.02 mPa·s and 4.009 mPa·s
293.15 K, 101.33 kPa	4.008 mPa·s and 2.75 mPa·s
297 K, 101 kPa	3.569 mPa·s
298.15 K, 101.3 kPa	3.247 mPa·s and 3.256 mPa·s
298.15 K, 101.33 kPa	3.537 mPa·s and 3.41 mPa·s and 3.41 mPa·s
303 K, 101 kPa	2.943 mPa·s
303 K, 101.33 kPa	2.58 mPa·s
303.15 K, 100 kPa	2.938 mPa·s and 2.781 mPa·s
303.15 K, 101.3 kPa	2.745 mPa·s and 2.743 mPa·s and 2.842 mPa·s
303.15 K, 101.33 kPa	2.54 mPa·s and 2.982 mPa·s and 2.1 mPa·s
308 K, 101 kPa	2.261 mPa·s
308.15 K, 100 kPa	2.487 mPa·s and 2.231 mPa·s
308.15 K, 101.33 kPa	2.433 mPa·s
313 K, 101 kPa	2.169 mPa·s
313.15 K, 100 kPa	2.174 mPa·s
313.15 K, 101 kPa	2.17 mPa·s and 2.138 mPa·s and 1.96 mPa·s
313.15 K, 101.3 kPa	2.08 mPa·s
313.15 K, 101.33 kPa	2.186 mPa·s and 1.65 mPa·s
318.15 K, 101 kPa	1.751 mPa·s and 1.834 mPa·s
318.15 K, 101.33 kPa	1.804 mPa·s
323 K, 101 kPa	1.632 mPa·s
323.15 K, 100 kPa	1.637 mPa·s
323.15 K, 101.33 kPa	1.663 mPa·s

CC1CCCO1 (centres undefined)
298.15 K
Settings	viscosity [mPa·s]
101 kPa	0.463
101.33 kPa	0.4753

CCCC=O
Settings	viscosity [mPa·s]
298.1 K, 101 kPa	0.403

CCCCCC
viscosity
Settings	293.15 K	298 K	303 K	303.15 K	308.15 K	313 K	313.15 K	318.15 K	323 K	323.15 K
100 kPa	–	–	–	0.2941 mPa·s	–	–	0.259 mPa·s and 0.26 mPa·s and 0.257 mPa·s	–	–	0.2345 mPa·s and 0.231 mPa·s
101 kPa	0.31 mPa·s and 0.3119 mPa·s	0.31 mPa·s	0.2673 mPa·s	–	0.268 mPa·s and 0.265 mPa·s	0.2482 mPa·s	–	0.3 mPa·s and 0.245 mPa·s	0.2285 mPa·s	0.2333 mPa·s and 0.235 mPa·s
101.3 kPa	–	–	–	0.2776 mPa·s and 0.286 mPa·s and 0.294 mPa·s	–	–	0.274 mPa·s	–	–	0.251 mPa·s
101.33 kPa	0.31 mPa·s	–	0.273 mPa·s and 0.2865 mPa·s	–	–	0.247 mPa·s	0.2391 mPa·s and 0.257 mPa·s and 0.257 mPa·s	0.247 mPa·s	0.226 mPa·s	0.2524 mPa·s

CCCCCCCCCCCCCC(=O)OC
Settings	viscosity [mPa·s]
323.15 K, 100 kPa	2.301

CCCCCCCCCCCCc1ccccc1
102 kPa
Settings	viscosity [mPa·s]
293.15 K	5.47
303.15 K	4.21
313.15 K	3.33
323.15 K	2.71

CCCCCOC(=O)CCC
101 kPa
Settings	viscosity [mPa·s]
298.15 K	1.07
313.15 K	0.86

CCCCCOC(C)=O
viscosity
Settings	293.15 K	303.15 K	313.15 K	323.15 K
101 kPa	–	–	0.663 mPa·s	0.589 mPa·s
101.3 kPa	–	0.7522 mPa·s and 0.7522 mPa·s	–	–
101.33 kPa	0.931 mPa·s	0.805 mPa·s	0.676 mPa·s	0.552 mPa·s

CCC[N+]1(C)CCCCC1.O=S(=O)([N-]S(=O)(=O)C(F)(F)F)C(F)(F)F
101.3 kPa
Settings	viscosity [mPa·s]
293.15 K	199
298.15 K	147
303.15 K	112
308.15 K	86.6
313.15 K	68.5
318.15 K	55.1
323.15 K	45.1

CCOC(=O)CC
Settings	viscosity [mPa·s]
303.15 K, 101 kPa	0.4833

CCn1cc[n+](C)c1.O=S(=O)([O-])C(F)(F)F
101 kPa
Settings	viscosity
293.15 K	48.6 mPa·s
298.15 K	43.8 mPa·s and 40.44 mPa·s
303.15 K	36.7 mPa·s and 34.02 mPa·s
308.15 K	32.28 mPa·s
313.15 K	26.6 mPa·s and 24.89 mPa·s
318.15 K	21.55 mPa·s
323.15 K	18.64 mPa·s

CN(C)CCO
viscosity
Settings	293.15 K	298.15 K	303.15 K	308.15 K	313.15 K	318.15 K	323.15 K
101 kPa	4.27 mPa·s	3.78 mPa·s	3.24 mPa·s and 2.835 mPa·s	2.91 mPa·s and 2.485 mPa·s	2.53 mPa·s and 2.186 mPa·s	2.27 mPa·s and 1.938 mPa·s	2.04 mPa·s and 1.723 mPa·s
101.3 kPa	–	–	2.419 mPa·s	–	2.023 mPa·s	–	1.734 mPa·s

Cc1ccccc1O
viscosity
Settings	293.15 K	298.15 K	308.15 K	313.15 K	318.15 K	323.15 K
101 kPa	9.56 mPa·s	7.607 mPa·s and 7.608 mPa·s	–	4.312 mPa·s and 4.238 mPa·s and 4.1 mPa·s	3.506 mPa·s and 2.215 mPa·s	–
101.3 kPa	–	–	–	4.243 mPa·s	–	3.02 mPa·s
101.33 kPa	–	7.493 mPa·s	4.853 mPa·s	–	3.359 mPa·s	2.83 mPa·s

ClCC(Cl)Cl
viscosity [mPa·s]
Settings	298.15 K	308.15 K	313.15 K
100 kPa	–	0.953	0.887
101 kPa	1.061	–	–

O=C([O-])CC(O)(CC(=O)[O-])C(=O)[O-].[NH3+]CCO.[NH3+]CCO.[NH3+]CCO
101 kPa
Settings	viscosity [mPa·s]
293.15 K	183.9
303.15 K	113.8
313.15 K	67.2
323.15 K	37.38

O=C1OCCO1
viscosity
Settings	298.15 K	313.15 K	323.15 K
100 kPa	–	1.81 mPa·s and 1.917 mPa·s	1.56 mPa·s
101.3 kPa	2.263 mPa·s	1.879 mPa·s	–
101.33 kPa	–	1.93 mPa·s	–

From the CheMixHub viscosity set
